From US20110098288A1, “SULFONAMIDES AS ZAP-70 INHIBITORS” (priority 2008, published 2011)
Where a name gives a salt, the structure may show the parent alone.

Target: T1, ZAP-70 (Homo sapiens, UniProt P43403)
T1 construct: endogenous in cells; host or cells: cell lysate
T1 sequence (P43403 1-619): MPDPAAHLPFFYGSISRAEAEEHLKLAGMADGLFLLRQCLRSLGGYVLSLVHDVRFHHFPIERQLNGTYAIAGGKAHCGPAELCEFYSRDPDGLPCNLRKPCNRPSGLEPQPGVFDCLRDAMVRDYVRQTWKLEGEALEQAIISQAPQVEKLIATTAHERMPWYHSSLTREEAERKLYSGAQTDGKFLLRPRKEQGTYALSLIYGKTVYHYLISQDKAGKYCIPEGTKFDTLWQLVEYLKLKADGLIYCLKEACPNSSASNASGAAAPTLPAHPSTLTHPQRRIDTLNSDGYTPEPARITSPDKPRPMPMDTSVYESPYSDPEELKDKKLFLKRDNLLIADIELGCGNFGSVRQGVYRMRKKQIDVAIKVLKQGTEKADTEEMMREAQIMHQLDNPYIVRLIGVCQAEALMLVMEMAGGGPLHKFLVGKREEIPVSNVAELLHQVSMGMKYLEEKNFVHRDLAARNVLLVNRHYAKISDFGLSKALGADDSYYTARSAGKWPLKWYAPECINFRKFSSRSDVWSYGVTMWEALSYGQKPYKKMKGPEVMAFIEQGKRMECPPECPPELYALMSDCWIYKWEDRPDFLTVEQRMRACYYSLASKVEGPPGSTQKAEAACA
Assay: ZAP-70 kinobeads assay
Type: binding
Conditions: competition with immobilized aminopyrido-pyrimidine ligand 24 in cell lysate; ZAP-70 detected by dot blot
Procedure: The compounds of the present invention as described in the previous examples can be tested in the ZAP-70 kinobeads assay as described (EP-A 1862802 and WO-A 2007/137867). Briefly, test compounds (at various concentrations) and the affinity matrix with the immobilized aminopyrido-pyrimidine ligand 24 are added to cell lysate aliquots and allowed to bind to the proteins in the lysate sample. After the incubation time the beads with captured proteins are separated from the lysate. Bound proteins are then eluted and the presence ZAP-70 is detected and quantified using a specific antibody in a dot blot procedure and the Odyssey infrared detection system. Conventionally, ZAP-70 kinase activity can be measured using purified or recombinant enzyme in a solution-based assay with protein or peptide substrates (Isakov et al., 1996, J. Biol. Chem. 271(26), 15753-15761; Moffat et al., 1999, Bioorg. Med. Chem. Letters 9, 3351-3356).

IC50 [nM]	Compound
1000 to 10000	Cc1nc(-c2ccc(Nc3ncc(F)c(Nc4ccccc4NS(C)(=O)=O)n3)cc2)cs1 [Example 192, N-(2-(5-fluoro-2-(4-(2-methylthiazol-4-yl)phenylamino)pyrimidin-4-ylamino)phenyl)methanesulfonamide]
100 to 1000	CN(c1ccccc1Nc1nc(Nc2ccc(OCCN3CCCCC3)cc2)ncc1F)S(C)(=O)=O [Example 110, N-(2-(5-fluoro-2-(4-(2-(piperidin-1-yl)ethoxy)phenylamino)pyrimidin-4-ylamino)phenyl)-N-methylmethanesulfonamide]
1000 to 10000	COc1cc(Nc2ncc(F)c(Nc3cc(F)c(F)cc3NS(C)(=O)=O)n2)cc(OC)c1OC [Example 174, N-(4,5-difluoro-2-(5-fluoro-2-(3,4,5-trimethoxyphenylamino)pyrimidin-4-ylamino)phenyl)methanesulfonamide]
100 to 1000	Cc1n[nH]c(-c2cccc(Nc3ncc(Cl)c(Nc4ccccc4NS(C)(=O)=O)n3)c2)n1 [Example 213, N-(2-(5-chloro-2-(3-(3-methyl-1H-1,2,4-triazol-5-yl)phenylamino)pyrimidin-4-ylamino)phenyl)methanesulfonamide]
1000 to 10000	CS(=O)(=O)Nc1ccccc1Nc1nc(Nc2ccc(-n3cnnn3)cc2)ncc1F [Example 195, N-(2-(2-(4-(1H-tetrazol-1-yl)phenylamino)-5-fluoropyrimidin-4-ylamino)phenyl)methanesulfonamide]
1000 to 10000	CS(=O)(=O)Nc1ccccc1Nc1nc(Nc2cccc(C(=O)NC3CC3)c2)ncc1F [Example 83, N-cyclopropyl-3-(5-fluoro-4-(2-(methylsulfonamido)phenylamino)pyrimidin-2-ylamino)benzamide]
1000 to 10000	CCOc1cccc(Nc2ncc(F)c(Nc3ccccc3NS(C)(=O)=O)n2)c1 [Example 13, N-(2-(2-(3-ethoxyphenylamino)-5-fluoropyrimidin-4-ylamino)phenyl)methanesulfonamide]
1000 to 10000	Cc1nnnn1-c1cccc(Nc2ncc(F)c(Nc3ccccc3NS(C)(=O)=O)n2)c1 [Example 194, N-(2-(5-fluoro-2-(3-(5-methyl-1H-tetrazol-1-yl)phenylamino)pyrimidin-4-ylamino)phenyl)methanesulfonamide]
1000 to 10000	CCCOc1cccc(Nc2ncc(F)c(Nc3cccc(C)c3NS(C)(=O)=O)n2)c1 [Example 122, N-(2-(5-fluoro-2-(3-propoxyphenylamino)pyrimidin-4-ylamino)-6-methylphenyl)methanesulfonamide]
100 to 1000	COc1cc(Nc2ncc(F)c(Nc3ccccc3NS(C)(=O)=O)n2)cc(OCCN2CCCC2)c1OC [Example 74, N-(2-(2-(3,4-dimethoxy-5-(2-(pyrrolidin-1-yl)ethoxy)phenylamino)-5-fluoropyrimidin-4-ylamino)phenyl)methanesulfonamide]
1000 to 10000	CS(=O)(=O)Nc1ccccc1Nc1nc(Nc2cccc(-c3nnn[nH]3)c2)ncc1F [Example 190, N-(2-(2-(3-(1H-tetrazol-5-yl)phenylamino)-5-fluoropyrimidin-4-ylamino)phenyl)methanesulfonamide]
100 to 1000	Cc1nc(-c2cccc(Nc3ncc(Cl)c(Nc4ccccc4NS(C)(=O)=O)n3)c2)no1 [Example 208, N-(2-(5-chloro-2-(3-(5-methyl-1,2,4-oxadiazol-3-yl)phenylamino)pyrimidin-4-ylamino)phenyl)methanesulfonamide]
100 to 1000	CN(c1ccccc1Nc1nc(Nc2ccc(OCCN3CCOCC3)cc2)ncc1F)S(C)(=O)=O [Example 111, N-(2-(5-fluoro-2-(4-(2-morpholinoethoxy)phenylamino)pyrimidin-4-ylamino)phenyl)-N-methylmethanesulfonamide]
1000 to 10000	COc1cc(Nc2ncc(F)c(Nc3ccccc3NS(=O)(=O)c3cccnc3)n2)cc(OC)c1OC [Example 52, N-(2-(5-fluoro-2-(3,4,5-trimethoxyphenylamino)pyrimidin-4-ylamino)phenyl)pyridine-3-sulfonamide]
100 to 1000	CS(=O)(=O)Nc1ccccc1Nc1nc(Nc2ccc(-n3cncn3)cc2)ncc1F [Example 198, N-(2-(2-(4-(1H-1,2,4-triazol-1-yl)phenylamino)-5-fluoropyrimidin-4-ylamino)phenyl)methanesulfonamide]
100 to 1000	CS(=O)(=O)Nc1ccccc1Nc1nc(Nc2cccc(OCC(=O)O)c2)ncc1F [Example 99, 2-(3-(5-fluoro-4-(2-(methylsulfonamido)phenylamino)pyrimidin-2-ylamino)phenoxy)acetic acid hydrochloride]
100 to 1000	COc1cc(Nc2ncc(F)c(Nc3ccccc3N(C)S(C)(=O)=O)n2)cc(OC)c1OC [Example 71, N-(2-(5-fluoro-2-(3,4,5-trimethoxyphenylamino)pyrimidin-4-ylamino)phenyl)-N-methylmethanesulfonamide]
1000 to 10000	Cc1nc(-c2ccc(Nc3ncc(F)c(Nc4ccccc4NS(C)(=O)=O)n3)cc2)no1 [Example 197, N-(2-(5-fluoro-2-(4-(5-methyl-1,2,4-oxadiazol-3-yl)phenylamino)pyrimidin-4-ylamino)phenyl)methanesulfonamide]
100 to 1000	CS(=O)(=O)Nc1ccccc1Nc1nc(Nc2cccc(C(=O)N3CCCC3)c2)ncc1F [Example 82, N-(2-(5-fluoro-2-(3-(pyrrolidine-1-carbonyl)phenylamino)pyrimidin-4-ylamino)phenyl)methanesulfonamide]
1000 to 10000	CS(=O)(=O)Nc1ccccc1Nc1nc(Nc2ccccc2)ncc1F [Example 34, N-(2-(5-fluoro-2-(phenylamino)pyrimidin-4-ylamino)phenyl)methanesulfonamide]
1000 to 10000	CS(=O)(=O)Nc1ccccc1Nc1nc(Nc2cccc(-n3cnnn3)c2)ncc1F [Example 188, N-(2-(2-(3-(1H-tetrazol-1-yl)phenylamino)-5-fluoropyrimidin-4-ylamino)phenyl)methanesulfonamide]
100 to 1000	Cc1cc(C)n(-c2ccc(Nc3ncc(Cl)c(Nc4ccccc4NS(C)(=O)=O)n3)cc2)n1 [Example 210, N-(2-(5-chloro-2-(4-(3,5-dimethyl-1H-pyrazol-1-yl)phenylamino)pyrimidin-4-ylamino)phenyl)methanesulfonamide]
100 to 1000	CS(=O)(=O)Nc1ccccc1Nc1nc(Nc2ccc3c(c2)OCC(=O)N3)ncc1F [Example 23, N-(2-(5-fluoro-2-(3-oxo-3,4-dihydro-2H-benzo[b][1,4]oxazin-7-ylamino)pyrimidin-4-ylamino)phenyl)methanesulfonamide]
100 to 1000	COc1ccc(Nc2ncc(F)c(Nc3ccccc3N(C)S(C)(=O)=O)n2)cc1OC [Example 109, N-(2-(2-(3,4-dimethoxyphenylamino)-5-fluoropyrimidin-4-ylamino)phenyl)-N-methylmethanesulfonamide]
100 to 1000	CCN(CC)C(=O)COc1cccc(Nc2ncc(F)c(Nc3ccccc3NS(C)(=O)=O)n2)c1 [Example 100, N,N-diethyl-2-(3-(5-fluoro-4-(2-(methylsulfonamido)phenylamino)pyrimidin-2-ylamino)phenoxy)acetamide 2,2,2-trifluoroacetate]
1000 to 10000	Cc1nnc(-c2cccc(Nc3ncc(F)c(Nc4ccccc4NS(C)(=O)=O)n3)c2)[nH]1 [Example 24, N-(2-(5-fluoro-2-(3-(5-methyl-4H-1,2,4-triazol-3-yl)phenylamino)pyrimidin-4-ylamino)phenyl)methanesulfonamide]
100 to 1000	CS(=O)(=O)Nc1ccccc1Nc1nc(Nc2cccc(OC(F)F)c2)ncc1Br [Example 103, N-(2-(5-bromo-2-(3-(difluoromethoxy)phenylamino)pyrimidin-4-ylamino)phenyl)methanesulfonamide]
< 100	CS(=O)(=O)Nc1ccccc1Nc1nc(Nc2cccc(OCCN3CCNCC3)c2)ncc1Cl [Example 133, N-(2-(5-chloro-2-(3-(2-(piperazin-1-yl)ethoxy)phenylamino)pyrimidin-4-ylamino)phenyl)methanesulfonamide trifluoroacetate]
1000 to 10000	CS(=O)(=O)Nc1ccccc1Nc1nc(Nc2cccc(F)c2)ncc1F [Example 6, N-(2-(5-fluoro-2-(3-fluorophenylamino)pyrimidin-4-ylamino)phenyl)methanesulfonamide]
1000 to 10000	COc1cc(Nc2ncc(F)c(Nc3cccc(NS(=O)(=O)CC(F)(F)F)c3)n2)cc(OC)c1OC [Example 60, 2,2,2-trifluoro-N-(3-(5-fluoro-2-(3,4,5-trimethoxyphenylamino)pyrimidin-4-ylamino)phenyl)ethanesulfonamide]
